Where two headings read alike, the source gives them in different places.
Columns and labels:
[1] = cited from earlier work
[2] = system: PHH spheroids (hanging-drop); conditions: cited from earlier work
[3] = ref DrugBank and Prescribers' Digital Reference database; cited from earlier work
[4] = system: primary human hepatocytes (PHH) 3D spheroids; assay: CD-spheroid hepatotoxicity: ATP viability (CellTiter-Glo) of PHH 3D spheroids after 14 days repeated exposure at 1×, 5×, 20× cmax
[5] = system: clinical DILI in man; conditions: cited from earlier work
[6] = in vitro; conditions: human
[7] = system: PHH 2D sandwich cultures; conditions: cited from earlier work
[8] = system: primary human hepatocytes (PHH) 3D spheroids
[9] = system: C57BL/6 mouse primary hepatocyte 3D spheroids; assay: Animal hepatocyte spheroid hepatotoxicity (ATP viability, 14 days), C57BL/6 (BL6) mouse; assay type: cell-based; conditions: C57BL/6 mouse hepatocyte spheroids, 1×, 5×, 20× human cmax, 14 days
[10] = system: Gottingen minipig primary hepatocyte 3D spheroids; assay: Animal hepatocyte spheroid hepatotoxicity (ATP viability, 14 days), minipig; assay type: cell-based; conditions: minipig hepatocyte spheroids, 1×, 5×, 20× human cmax, 14 days
[11] = system: Wistar rat primary hepatocyte 3D spheroids; assay: Animal hepatocyte spheroid hepatotoxicity (ATP viability, 14 days), Wistar rat; assay type: cell-based; conditions: Wistar rat hepatocyte spheroids, 1×, 5×, 20× human cmax, 14 days
[12] = system: CD1 mouse primary hepatocyte 3D spheroids; assay: Animal hepatocyte spheroid hepatotoxicity (ATP viability, 14 days), CD1 mouse; assay type: cell-based; conditions: CD1 mouse hepatocyte spheroids, 1×, 5×, 20× human cmax, 14 days
[13] = system: rhesus monkey primary hepatocyte 3D spheroids; assay: Animal hepatocyte spheroid hepatotoxicity (ATP viability, 14 days), rhesus monkey; assay type: cell-based; conditions: rhesus monkey hepatocyte spheroids, 1×, 5×, 20× human cmax, 14 days
[14] = therapeutic total cmax, ref PMID
[15] = PHH hanging-drop spheroids, 100x Cmax, ref Proctor 2017
[16] = PHH spheroids in chemically defined conditions, 20x Cmax
[17] = FDA drug labeling DILI concern, ref Chen et al., 2011
[18] = FDA drug labeling DILI score, ref Chen et al., 2011
[19] = clinical DILI classification in man (POS/NEG)
[20] = clinical DILI classification used in this study, Supplementary Table 2, ref Chen et al., 2011, Guo et al., 2005, O'Brien et al., 2006, Sakatis et al., 2012, Suzuki et al., 2010, Xu et al., 2008
[21] = clinical DILI classification, Supplementary Table 1, ref Chen et al., 2011, Guo et al., 2005, O'Brien et al., 2006, Sakatis et al., 2012, Suzuki et al., 2010, Xu et al., 2008
[22] = reported pattern of liver damage, Supplementary Table 2, ref literature
[23] = PHH 2D sandwich cultures, 100x Cmax, ref Xu 2008
[24] = clinical DILI classification, ref Xu et al. (2008)
[25] = DILI classification score, ref Guo et al. (2005)
[26] = DILI classification score, ref Suzuki et al. (2010)

Compound	Cmax [1, 14] [nM]	Hanging-drop spheroids (Proctor 2017) 100x [2, 15]	Extent of hepatic metabolism [3]	Chemically defined spheroids (this study) 20x [4, 16]	FDA (0-8) [5, 18]	DILI in vivo [5, 19]	Classified as [5, 20]	DILI in vivo [5, 21]	Type of DILI [5, 22]	2Dsw (Xu 2008) 100x [7, 23]	Chemically defined spheroids (this study) 20x [8]	Classified as ([5]; in vivo)	Clinical DILI class (panel heading of Figure 4) ([5]; in vivo)	DILI in vivo ([5]; in vivo)	FDA (0-8) ([5]; in vivo)	FDA (Severity) ([5]; in vivo)	Sakatis et al. (2012) ([5]; in vivo)	Type of DILI ([5]; in vivo)	Xu et al. (2008) [5, 24]	further results
COC(c1ccccc1)(c1ccccc1)[C@H](Oc1nc(C)cc(C)n1)C(=O)O [Ambrisentan]	2270	Negative	Extensive	Negative	7	NEG	NEG	NEG	Non-hepatotoxic											hepatotoxicity evaluation in CD-spheroids ([4]; PHH spheroids, 1×, 5×, 20× cmax, 14 days repeated exposure, ATP): did not result in a significant reduction of hepatocyte viability; FDA (Severity) [5, 17]: less DILI concern; Clinical DILI classification (Figure 5) ([5]; structural analogue pairs, Figure 5, ref Chen et al., 2011, Xu et al., 2008 and others): DILI negative
Cn1cnc([N+](=O)[O-])c1Sc1ncnc2nc[nH]c12 [Azathioprine]	7210	Positive	Extensive							Positive	Positive	POS	High DILI concern	POS	5	less DILI concern	Hepatotoxic	Cholestatic injury or Mixed hepatitis		viability at 14 days, 1 × cmax [6]: < 10%; Guo et al. (2005) ([5]; in vivo): 3; O'Brien et al. (2003) ([5]; in vivo): Moderately; Suzuki et al. (2010) ([5]; in vivo): 1; Xu et al. (2008) ([5]; in vivo): Positive
CC(CCc1ccc(O)cc1)NCCc1ccc(O)c(O)c1 (centres unmarked) [Dobutamine]	1340		Extensive	Negative	0	NEG	NEG	NEG	Non-hepatotoxic	Negative									Negative	FDA (Severity) [5, 17]: no DILI concern
CC(C)C(=O)Nc1ccc([N+](=O)[O-])c(C(F)(F)F)c1 [Flutamide]	5430	Positive	Extensive		8	POS	POS	POS	Hepatocellular injury, Cholestatic injury or Mixed hepatitis	Negative	Positive						Hepatotoxic		Positive	hepatotoxicity evaluation in spheroids [9]: flagged as hepatotoxic; hepatotoxicity evaluation in spheroids [10]: flagged as hepatotoxic; hepatotoxicity evaluation in spheroids [11]: flagged as hepatotoxic; hepatotoxicity detection in 2D sandwich cultures of PHH ([7]; 100× cmax, 24 h, high content imaging, ref Xu et al., 2008): liver toxicity was not recognized; hepatotoxicity evaluation in spheroids [12]: flagged as hepatotoxic; Guo et al. (2005) [5, 25]: 3; Suzuki et al. (2010) [5, 26]: 2; FDA (Severity) [5, 17]: most DILI concern; O'Brien et al. (2003) ([5]; in vivo): Severely; hepatotoxicity evaluation in spheroids [13]: flagged as hepatotoxic
CC(=O)N1CCN(c2ccc(OCC3COC(Cn4ccnc4)(c4ccc(Cl)cc4Cl)O3)cc2)CC1 (centres unmarked) [Ketoconazole]		Positive	Extensive								Positive	POS	Severe DILI	POS	8	most DILI concern	Hepatotoxic	Hepatocellular injury or Cholestatic injury		viability at 14 days, 1 × cmax [6]: < 10%; Guo et al. (2005) ([5]; in vivo): 3; O'Brien et al. (2003) ([5]; in vivo): Severely; Suzuki et al. (2010) ([5]; in vivo): 2
C1CCC(C(CC2CCCCN2)C2CCCCC2)CC1 (centres unmarked) [Perhexiline]		Positive	Extensive		Withdrawn	POS	POS	POS	Hepatocellular injury	Positive	Positive								Positive	hepatotoxicity evaluation in spheroids [9]: flagged as hepatotoxic; hepatotoxicity evaluation in spheroids [10]: flagged as hepatotoxic; hepatotoxicity evaluation in spheroids [11]: flagged as hepatotoxic; hepatotoxicity evaluation in spheroids [12]: flagged as hepatotoxic; Suzuki et al. (2010) [5, 26]: 3; Sakatis et al. (2012) ([5]; clinical hepatotoxicity classification, ref Sakatis et al. (2012)): Hepatotoxic; hepatotoxicity evaluation in spheroids [13]: flagged as hepatotoxic
CC(COc1ccccc1)N(CCCl)Cc1ccccc1 (centres unmarked) [Phenoxybenzamine]				Negative								NEG	DILI negative	NEG	0	no DILI concern	non-hepatotixic	Non-hepatotoxic		Cmax ([1]; human, in vivo): 180 nM; Hanging-drop spheroids (Proctor 2017) 100x [2]: Negative; 2Dsw (Xu 2008) 100x [7]: Negative; Xu et al. (2008) ([5]; in vivo): Negative
CC(CN1c2ccccc2Sc2ccccc21)N(C)C (centres unmarked) [Promethazine]	60		Extensive		5	NEG	NEG	NEG	Non-hepatotoxic	Negative	Negative								Negative	hepatotoxicity evaluation in spheroids [11]: indicated toxicity; Guo et al. (2005) [5, 25]: 3
O=C(c1ccc(OCCN2CCCCC2)cc1)c1c(-c2ccc(O)cc2)sc2cc(O)ccc12 [Raloxifene]	1									Negative	Negative	NEG	DILI negative	NEG	0		non-hepatotixic	Non-hepatotoxic		hepatotoxicity evaluation in spheroids [12]: incorrectly flagged as hepatotoxic; Xu et al. (2008) ([5]; in vivo): Negative; hepatotoxicity evaluation in spheroids [13]: mild but significant toxicity
Cn1nnc2c(C(N)=O)ncn2c1=O [Temozolomide]	26800		Minimal	Negative	4	NEG	NEG	NEG	Non-hepatotoxic	Negative									Negative	Guo et al. (2005) [5, 25]: 1
Cc1ccc(C(=O)c2cc(O)c(O)c([N+](=O)[O-])c2)cc1 [Tolcapone]	47600	Positive	Extensive								Positive	POS	Severe DILI	POS	8	most DILI concern		Hepatocellular injury or Mixed hepatitis		viability at 14 days, 1 × cmax [6]: < 10%; Guo et al. (2005) ([5]; in vivo): 3; Suzuki et al. (2010) ([5]; in vivo): 3
Aflatoxin B1												POS		POS				Hepatocellular injury		Cmax ([1]; human, in vivo): 30 nM; Chemically defined spheroids (this study) 20x [4]: Positive

Source: PMC5974779, “Prediction of Drug-Induced Hepatotoxicity Using Long-Term Stable Primary Hepatic 3D Spheroid Cultures in Chemically Defined Conditions” (Toxicological Sciences, 2018)
